For this experiment, the system named is HBV. Briefly: HBV-DNA Antiviral Assay Using HepG2.117 Cells (intracellular HBV DNA by qPCR). Conditions: Hepatitis B virus, HepG2.117. It is filed as cell-based, hepatitis B virus (genotype D). Put shortly: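 HepG2.117 cells (genotype D HBV, Tet-off) were induced by doxycycline withdrawal and treated for 3 days with 9 concentrations in 4-fold dilution, 2% DMSO final. Intracellular HBV DNA was measured by qPCR against a standard curve, with ATPlite viability read in parallel. EC50, EC90 and CC50 came from fits against the DMSO control.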

One may read the EC50 as the concentration needed to bring the measured effect to its halfway point. A lower EC50 goes with an effect from little substance. In turn, `O=C(NCc1cccc2[nH]cnc12)c1c2n(c(=O)n1-c1ccc(OCC(F)(F)F)cc1)CCN(C(=O)c1ccc(Br)c(Cl)c1)C2` [Example 368, N-(1H-benzimidazol-4-ylmethyl)-7-(4-bromo-3-chloro-benzoyl)-3-oxo-2-[4-(2,2,2-trifluoroethoxy)phenyl]-6,8-dihydro-5H-imidazo[1,5-a]pyrazine-1-carboxamide] had an EC50 of 500 to 5000 nM.

`O=C(NCc1ccccc1)c1c2n(c(=O)n1-c1ccc3occc3c1)CCN(C(=O)c1ccc(Cl)c(Cl)c1)C2` [Example 120, 2-(benzofuran-5-yl)-N-benzyl-7-(3,4-dichlorobenzoyl)-3-oxo-6,8-dihydro-5H-imidazo[1,5-a]pyrazine-1-carboxamide] returned an EC50 of 500 to 5000 nM. The figure for `C[C@H](NC(=O)c1c2n(c(=O)n1-c1ccc(OC3CC3)cc1)CCN(C(=O)c1ccc(Br)c(Cl)c1)C2)c1ccc(OCC(N)=O)cc1F` (stereo in doubt) [Example 315, 7-(4-bromo-3-chloro-benzoyl)-2-[4-(cyclopropoxy)phenyl]-3-oxo-N-[rac-(1R)-1-[4-(2-amino-2-oxo-ethoxy)-2-fluoro-phenyl]ethyl]-6,8-dihydro-5H-imidazo[1,5-a]pyrazine-1-carboxamide] is 500 to 5000 nM.

Take `COc1ccc(-n2c(C(=O)NCc3ccc(C(N)=O)cc3)c3n(c2=O)CCN(C(=O)c2ccc(Cl)c(Cl)c2)C3)cc1` [Example 104, N-[(4-carbamoylphenyl)methyl]-7-(3,4-dichlorobenzoyl)-2-(4-methoxyphenyl)-3-oxo-6,8-dihydro-5H-imidazo[1,5-a]pyrazine-1-carboxamide]: the EC50 is > 5000 nM. The figure for `COc1ccc([C@H](C)NC(=O)c2c3n(c(=O)n2-c2ccc(-n4cccn4)cc2)CCN(C(=O)c2ccc(Br)c(Cl)c2)C3)cc1` [Example 442, 7-(4-bromo-3-chloro-benzoyl)-N-[(1S)-1-(4-methoxyphenyl)ethyl]-3-oxo-2-(4-pyrazol-1-ylphenyl)-6,8-dihydro-5H-imidazo[1,5-a]pyrazine-1-carboxamide] is 100 to 500 nM; for `COc1ccc(-n2c(C(=O)NCc3cccc(OC)c3C)c3n(c2=O)CCN(C(=O)c2ccc(Br)c(Cl)c2)C3)cc1` [Example 155, 7-(4-bromo-3-chloro-benzoyl)-N-[(3-methoxy-2-methyl-phenyl)methyl]-2-(4-methoxyphenyl)-3-oxo-6,8-dihydro-5H-imidazo[1,5-a]pyrazine-1-carboxamide] it is 100 to 500 nM. To `O=C(NCc1ccccc1-c1ccncn1)c1c2n(c(=O)n1-c1ccc(OCC(F)(F)F)cc1)CCN(C(=O)c1ccc(Br)c(Cl)c1)C2` [Example 423, 7-(4-bromo-3-chloro-benzoyl)-3-oxo-N-[(2-pyrimidin-4-ylphenyl)methyl]-2-[4-(2,2,2-trifluoroethoxy)phenyl]-6,8-dihydro-5H-imidazo[1,5-a]pyrazine-1-carboxamide] belongs < 100 nM; to `O=C(NCc1ccccc1-c1ccncn1)c1c2n(c(=O)n1-c1ccc(OC3CC3)cc1)CCN(C(=O)c1ccc(Br)c(Cl)c1)C2` [Example 424, 7-(4-bromo-3-chloro-benzoyl)-2-[4-(cyclopropoxy)phenyl]-3-oxo-N-[(2-pyrimidin-4-ylphenyl)methyl]-6,8-dihydro-5H-imidazo[1,5-a]pyrazine-1-carboxamide], < 100 nM. To `COc1ccc(-n2c(-c3ncc(Cc4ccccc4)o3)c3n(c2=O)CCN(C(=O)c2ccc(Br)c(Cl)c2)C3)cc1` [Example 86] belongs 500 to 5000 nM; to `C[C@@H](c1ccccc1)N1C[C@H](O)Cn2c(c3n(c2=O)CCN(C(=O)c2ccc(Br)c(Cl)c2)C3)C1=O` (stereo in doubt) [Example 238, (11SR)-4-(4-bromo-3-chloro-benzoyl)-11-hydroxy-13-[(1S)-1-phenylethyl]-4,7,9,13-tetrazatricyclo[7.5.0.0^2,7]tetradec-1-ene-8,14-dione], 100 to 500 nM; to `CC(C)Oc1ccc(-n2c(C(=O)N[C@H](C)c3ccc(C#N)cc3)c3n(c2=O)CCN(C(=O)c2ccc(Br)c(Cl)c2)C3)cc1` (stereo in doubt) [Example 233, 7-(4-bromo-3-chloro-benzoyl)-2-(4-isopropoxyphenyl)-3-oxo-N-[rac-(1R)-1-(4-cyanophenyl)ethyl]-6,8-dihydro-5H-imidazo[1,5-a]pyrazine-1-carboxamide], 100 to 500 nM. In turn, `C[C@H](NC(=O)c1c2n(c(=O)n1-c1ccc(OCC(F)(F)F)cc1)CCN(C(=O)c1ccc(Br)c(Cl)c1)C2)c1ccccc1F` (stereo in doubt) [Example 264, 7-(4-bromo-3-chloro-benzoyl)-3-oxo-N-[rac-(1S)-1-(2-fluorophenyl)ethyl]-2-[4-(2,2,2-trifluoroethoxy)phenyl]-6,8-dihydro-5H-imidazo[1,5-a]pyrazine-1-carboxamide] gave an EC50 of 500 to 5000 nM. The figure for `CC(C)Oc1ccc(-n2c(C(=O)NCc3ccccc3C(N)=O)c3n(c2=O)CCN(C(=O)c2ccc(Br)c(Cl)c2)C3)cc1` [Example 222, 7-(4-bromo-3-chloro-benozyl)-N-[(2-carbamoylphenyl)methyl]-2-(4-isopropoxyphenyl)-3-oxo-6,8-dihydro-5H-imidazo[1,5-a]pyrazine-1-carboxamide] is > 5000 nM; for `N#CCOc1ccc(CNC(=O)c2c3n(c(=O)n2-c2ccc(OC4CC4)cc2)CCN(C(=O)c2ccc(Br)c(Cl)c2)C3)c(F)c1` [Example 323, 7-(4-bromo-3-chloro-benzoyl)-N-[[4-(cyanomethoxy)-2-fluoro-phenyl]methyl]-2-[4-(cyclopropoxy)phenyl]-3-oxo-6,8-dihydro-5H-imidazo[1,5-a]pyrazine-1-carboxamide] it is 100 to 500 nM. The figure for `COc1ccc(-n2c(C(=O)N[C@@H](c3ccccc3)C(C)C)c3n(c2=O)CCN(C(=O)c2ccc(Br)c(Cl)c2)C3)cc1` (racemic) [Example 178, 7-(4-bromo-3-chloro-benzoyl)-2-(4-methoxyphenyl)-3-oxo-N-[rac-(1R)-2-methyl-1-phenyl-propyl]-6,8-dihydro-5H-imidazo[1,5-a]pyrazine-1-carboxamide] is 500 to 5000 nM; for `COc1ccc(-n2c(C(=O)NCc3ccc(C(C)C)cc3)c3n(c2=O)CCN(C(=O)c2ccc(Br)c(Cl)c2)C3)cc1` [Example 142, 7-(4-bromo-3-chloro-benzoyl)-N-[(4-isopropylphenyl)methyl]-2-(4-methoxyphenyl)-3-oxo-6,8-dihydro-5H-imidazo[1,5-a]pyrazine-1-carboxamide] it is 100 to 500 nM; for `O=C(c1ccc(Br)c(Cl)c1)N1CCn2c(c3n(c2=O)C[C@H](O)CN(Cc2ccccc2)C3=O)C1` (stereo in doubt) [Example 174, rac-(11R)-13-benzyl-4-(4-bromo-3-chloro-benzoyl)-11-hydroxy-4,7,9,13-tetrazatricyclo[7.5.0.0^2,7]tetradec-1-ene-8.14-dione] it is 500 to 5000 nM.

Consider `COc1ccc(-n2c(C(=O)NCc3cccnc3)c3n(c2=O)CCN(C(=O)c2ccc(Cl)c(Cl)c2)C3)cc1` [Example 64, 7-(3,4-dichlorobenzoyl)-2-(4-methoxyphenyl)-3-oxo-N-(3-pyridylmethyl)-6,8-dihydro-5H-imidazo[1,5-a]pyrazine-1-carboxamide], for which the EC50 was > 5000 nM. Consider `Cc1cc(-n2c(C(=O)NCc3ccccc3)c3n(c2=O)CCN(C(=O)c2ccc(Br)c(Cl)c2)C3)ccc1C#N` [Example 257, N-benzyl-7-(4-bromo-3-chloro-benzoyl)-2-(4-cyano-3-methyl-phenyl)-3-oxo-6,8-dihydro-5H-imidazo[1,5-a]pyrazine-1-carboxamide], for which the EC50 was 500 to 5000 nM.

`Cc1c(C(=O)N2CCn3c(c(C(=O)NCc4ccccc4)n(-c4ccc(OC5CC5)cc4)c3=O)C2)ccc(Br)c1Cl` [Example 462, N-benzyl-7-(4-bromo-3-chloro-2-methyl-benzoyl)-2-[4-(cyclopropoxy)phenyl]-3-oxo-6,8-dihydro-5H-imidazo[1,5-a]pyrazine-1-carboxamide]: the concentration for a half-maximal effect (EC50) was in the range of 500 to 5000 nM. To `COc1ccc(-n2c(C(=O)NCc3ccc(C#N)cc3)c3n(c2=O)CCN(C(=O)c2ccc(Br)c(Cl)c2)C3)cc1` [Example 180, 7-(4-bromo-3-chloro-benzoyl)-N-[(4-cyanophenyl)methyl]-2-(4-methoxyphenyl)-3-oxo-6,8-dihydro-5H-imidazo[1,5-a]pyrazine-1-carboxamide] belongs 500 to 5000 nM; to `O=C(c1ccc(Br)c(Cl)c1)N1CCn2c(c3n(c2=O)C[C@H](CO)CN(Cc2ccccc2)C3=O)C1` (stereo in doubt) [Example 146, rac-(11R)-13-benzyl-4-(4-bromo-3-chloro-benzoyl)-11-(hydroxymethyl)-4,7,9,13-tetrazatricyclo[7.5.0.0^2,7]tetradec-1-ene-8,14-dione], 100 to 500 nM; to `CO[C@@H]1CN(Cc2ccccc2)Cc2c3n(c(=O)n2C1)CCN(C(=O)c1ccc(Br)c(Cl)c1)C3` (stereo in doubt) [Example 309, rac-(11R)-13-benzyl-4-(4-bromo-3-choro-benzoyl)-11-methoxy-4,7,9,13-tetrazatricyclo[7.5.0.0^2,7]tetradec-1-ene-8,14-dione], 500 to 5000 nM. Take `COc1ccc(CNC(=O)c2c3n(c(=O)n2CCc2ccccc2)CCN(C(=O)c2ccc(Br)c(Cl)c2)C3)cc1` [Example 15, 7-(4-bromo-3-chlorobenzoyl)-N-[(4-methoxyphenyl)methyl]-3-oxo-2-(2-phenylethyl)-5H,6H,8H-imidazo[1,5-a]pyrazine-1-carboxamide]: the EC50 is > 5000 nM. To `CC(C)Oc1ccc(-n2c(C(=O)NCc3ccccc3)c3n(c2=O)CCN(C(=O)c2ccc(Br)nc2)C3)cc1` [Example 223, N-benzyl-7-(6-bromopyridine-3-carbonyl)-2-(4-isopropoxyphenyl)-3-oxo-6,8-dihydro-5H-imidazo[1,5-a]pyrazine-1-carboxamide] belongs > 5000 nM; to `NS(=O)(=O)c1ccc(-n2c(C(=O)NCc3ccccc3)c3n(c2=O)CCN(C(=O)c2ccc(Br)c(Cl)c2)C3)cc1` [Example 71, N-benzyl-7-(4-bromo-3-chloro-benzoyl)-3-oxo-2-(4-sulfamoylphenyl)-6,8-dihydro-5H-imidazo[1,5-a]pyrazine-1-carboxamide], > 5000 nM.

Values taken from US11591341B2 (ALIGOS THERAPEUTICS, INC., priority 2019, dated 2023).
